# Patent US10960037B2, “Method of treating neurological conditions with extract of Nerium species or Thevetia species” (PHOENIX BIOTECHNOLOGY, INC., priority 2010, dated 2021)
# “Also recorded” adds a separate entry of the source.
# Experiments:
# [1] = system: ARE target genes Gclm, Nqo1, Srx, Hmox1; test: ARE target gene expression by qPCR, rat co-cultures; type: cell-based; details: for expression of ARE target genes: 6 h
# Method: FIG. 17 depicts the results of expression assays for Fraction 0-4 and the individual triterpenes oleanolic acid, ursolic acid, betulinic acid and uvaol. “X” symbols denote concentrations of compounds which induced toxicity and for which recovery of residual mRNA was insufficient to support qPCR analysis. Rat primary corticostriatal co-cultures were treated for 6 h with Fraction 0-4 (in μg/ml) or oleanolic acid, ursolic acid, betulinic acid, or uvalol (all in μM) at the concentrations indicated, then harvested and processed for qPCR analysis of the ARE target genes shown. Quantitative RNA values were normalized to the GAPDH reference control and fold-expression changes are expressed relative to the DMSO-carrier only condition (“--”) set to a value of 1. Dark bars denote statistically significant differences with respect to the DMSO-carrier only control by a Student's t-test at p<0.05.
# FIG. 18 depicts the results of expression assays for Fraction 0-4 and the individual triterpenes ursolic acid and betulinic acid at more similar concentration ranges. Rat primary corticostriatal co-cultures were treated for 6 h with Fraction 0-4 (in μg/ml) or ursolic acid and betulinic acid (in μM) at the concentrations indicated, then harvested and processed for qPCR analysis of the ARE target genes shown. Quantitative RNA values were normalized to the GAPDH reference control and fold-expression changes are expressed relative to the DMSO-carrier only condition (“--”) set to a value of 1. Dark blue bars denote statistically significant differences with respect to the DMSO-carrier only control by a Student's t-test at p<0.05.
# For qPCR quantification of ARE target gene expression levels, cortical and striatal neurons were plated onto 96-well plates containing mature glial cultures and cultured for 96 h. Fraction 0-4 was added to cultures at the indicated concentrations for 6 h. At the end of the treatment period, cells were lysed and total RNA was isolated using Absolutely RNA mini-prep kits (Agilent Technologies/Stratagene). cDNA was generated using oligo dT primers and Superscript II reverse transcriptase (Invitrogen). Resulting cDNA was used for quantitative PCR of gene transcripts using SYBR Green Real-Time PCR Master Mix (Life Technologies) and the following mouse primers, for: Gclc (forward-5′ […]-3′ and reverse-5′-[…]-3′), Nqo1 (forward-5′-GCCCGCATGCAGATCCT-3′ and reverse 5′-[…]3′), Srx (forward-5′-[…]-3′ and reverse-5′-[…]-3′), and Hmox1 (forward-5′-[…]-3′ and reverse-5′-[…]-3′) (Integrated DNA Technologies). […] Each biological sample was measured in triplicate on a ViiA 7 real-time PCR instrument (Applied Biosystems); fold expression was calculated after normalization to corresponding control GAPDH levels.
# [2] = system: cortical pyramidal neurons in APP-transfected brain slices; test: Brain slice APP/Aβ-induced degeneration "Alzheimer's" assay; type: cell-based, rat; details: result in words
# From the text: Example 9 provides a detailed description of an in vitro assay used to evaluate the efficacy of the extract for the treatment of Alzheimer's disease. The assay is a brain slice-based assay for APP/Aβ-induced (APP: amyloid precursor protein) degeneration of cortical pyramidal neurons. Upon cleavage by a secretase enzyme, the APP is reduced to Aβ peptides which are believed to be a causative factor in beta-amyloid plaque formation. Aβ proteins are associated with beta-amyloid plaque formation and are believed to be a hallmark if not etiologic factor in Alzheimer's disease. […]
# The APP-WT brain slice-based Alzheimer's assay was repeated (Example 11) using fractions of the SCF extract of Nerium oleander. The number of healthy cortical neurons was determined following APP/Aβ-induced degeneration in the presence of varying amounts of fraction 0-4A of the SCF extract (0.01 to 100 μg/ml). […]
# (§1) For all brain slice assays, numbers of healthy pyramidal neurons in the cortical regions of each brain slice were imaged on a Leica MZIIIFL fluorescence stereomicroscope. Cortical pyramidal neurons were readily identified by their characteristic positions and orientations in the cortical plate, and by their prominent extension of a single, apical dendrite radially towards the pial surface. […]
# [3] = system: cortical and striatal neurons transfected with mutant htt; test: Cortico-striatal co-culture "Huntington's disease" assay; type: cell-based
# From the text: Example 10 provides a detailed description of an assay used to evaluate the efficacy of the extract (or fraction thereof) for the treatment of Huntington's disease. Mutant htt protein is introduced via electroporation into high-density, mixed co-cultures of cortical neurons, striatal neurons, and glia. The striatal and cortical neurons are transfected with different color fluorescent proteins thereby facilitating the separate identification of the different types of neurons in the co-culture. The color fluorescent proteins are fluorescent and ‘emit’ color upon activation with a light source of appropriate wavelength. […] Such other agents can be used along with or in the absence of oleandrin or other cardiac glycoside.
# In this assay, instead of using intact brain slices, mutant htt is introduced via electroporation into high-density, mixed co-cultures of cortical neurons, striatal neurons, and glia arrayed in 96-well plates. […] In this assay, over the course of 1-2 weeks in vitro, transfected mutant htt constructs induce the progressive degeneration of both striatal and cortical neurons that are subsequently quantified using automated image acquisition and object detection algorithms on the Cellomics Arrayscan VTI platform. […] In a full run, some 25,000 images are collected and analyzed in each cycle, 4 cycles per week. […]
# [4] = system: healthy cortical pyramidal neurons in brain slices subjected to OGD; test: Brain slice-based oxygen-glucose deprivation (OGD) "stroke" neuroprotection assay; type: cell-based, Sprague-Dawley rat; details: result in words
# Method: Example 8 provides a detailed description of an in vitro assay used to evaluate the efficacy of the extract, or fraction thereof, or composition thereof, for the treatment of stroke-mediated ischemic neuronal injury. The assay is a brain slice-based assay for oxygen and glucose deprivation (OGD) used to induce 50% loss of healthy cortical neurons by 24 hours. The parent unfractionated SCF extract of Nerium species, e.g. Nerium oleander, is used as a positive control. The parent extract is then fractionated according to Example 13 to provide a fraction of extract of Nerium species. The fractions are analyzed according to Examples 6, 14 and 17.
# Neocortical brain slices were prepared from PND 7 Sprague-Dawley rat pups. The cerebral cortex was dissected, cut into 400-μ-thick slices and transferred into a container containing cold artificial cerebrospinal fluid with 1 μM MK-801 before plating; MK-801 was not included in any subsequent procedures. To mimic ischemic injury using transient oxygen-glucose deprivation (OGD), slices from one hemisphere of each brain were exposed to glucose-free, N2-bubbled artificial cerebrospinal fluid for 7.5 min in a low 02 (0.5%) environment. The OGD slices were then plated side-by-side with control slices from the contralateral hemisphere on nitrocellulose or Millicell (Millipore) permeable membranes, which were prepared identically except for no OGD. Thirty minutes after plating, the brain slice pairs were transfected, transferred to 24-well plates, and incubated at 37° C. under 5% CO2 in humidified chambers. In each experiment, 5-6 minutes of oxygen-glucose deprivation (OGD) was used to induce >50% loss of healthy cortical neurons by 24 hrs. A set concentration (3 μM) of neriifolin (a cardiac glycoside) was used as the internal positive control. […] A neuroprotective composition can be used as described herein for oleandrin.
# Coronal brain slices (250 μm thick) were prepared from postnatal day 10 Sprague-Dawley rat pups of either gender (Charles River) and established in organotypic culture. Animals were sacrificed in accordance with NIH guidelines and under Duke IACUC approval and oversight. […]
# as §1
# [5] = system: cortical neurons in "non-OGD" brain slices; test: Non-stroke (non-OGD) brain slice assay; type: cell-based, Sprague-Dawley rat; details: sliced and YFP-transfected, no OGD
# Method: Neuroprotective composition, oleandrin, PBI-05204 (an unfractionated SCF extract of Nerium oleander) or a fraction of the extract (PBI-04711) were tested on “nonstroked” brain slices; that is, ones that were sliced and transfected with YFP but not subjected to additional trauma via OGD. See experimental procedure outlined above.
smiles,measurement,setting,value
"C=C(C)[C@@H]1CC[C@]2(C(=O)O)CC[C@]3(C)[C@H](CC[C@@H]4[C@@]5(C)CC[C@H](O)C(C)(C)[C@@H]5CC[C@]43C)[C@@H]12 [Betulinic acid, betulinic acid]",toxicity in co-cultures,[1],toxicity at higher concentrations
"CO[C@H]1C[C@H](O[C@H]2CC[C@@]3(C)[C@H](CC[C@@H]4[C@@H]3CC[C@]3(C)[C@@H](C5=CC(=O)OC5)[C@@H](OC(C)=O)C[C@]43O)C2)O[C@@H](C)[C@@H]1O [Oleandrin, oleandrin]",neuroprotection in APP brain slice assay,[2],concentration-dependent neuroprotection
same,potency relative to KW6002,[3]; FIGS. 3A-3D,~100 fold
same,efficacy (surviving neurons) in cortico-striatal co-culture assay,[3]; result in words,more effective than KW6002; also recorded: strongest hits; also recorded: on par with KW6002
"CC1(C)CC[C@]2(C(=O)O)CC[C@]3(C)C(=CC[C@@H]4[C@@]5(C)CC[C@H](O)C(C)(C)[C@@H]5CC[C@]43C)[C@@H]2C1 [Oleanolic acid, oleanolic acid]",cellular toxicity,[4],not exhibited observable cellular toxicity
same,neuroprotection in brain slice OGD assay,[4],robust neuroprotection
same,neuroprotection in brain slice OGD assay,[4]; listed as OA,accounts for a majority of the neuroprotective activity; also recorded: substantially higher activity than UA
same,expression of ARE target genes,[1],robust upregulation of canonical ARE target genes
"C[C@H]1[C@H](C)CC[C@]2(C(=O)O)CC[C@]3(C)C(=CC[C@@H]4[C@@]5(C)CC[C@H](O)C(C)(C)[C@@H]5CC[C@]43C)[C@H]12 [Ursolic acid, ursolic acid]",neuroprotection in brain slice OGD assay,[4]; listed as UA,lower activity; also recorded: rise and fall in activity as concentration is increased
same,expression of ARE target genes,[1],robust upregulation of canonical ARE target genes; also recorded: clear upregulation of Srx and Hmox1
same,expression of ARE target genes,[1]; listed as UA,due more so to the activity of UA than of OA or BA
CO[C@H]1[C@H](O)[C@H](O[C@H]2CC[C@@]3(C)[C@H](CC[C@@H]4[C@@H]3CC[C@]3(C)[C@@H](C5=CC(=O)OC5)CC[C@]43O)C2)O[C@@H](C)[C@@H]1O [neriifolin],neuroprotection of non-OGD brain slices,[5],modest levels of neuroprotection
